Literature values as cited in publication PMC5483895 (Journal of Medicinal Chemistry, 2017).
Where two headings read alike, the source gives them in different places. Values belong to the molecule of their own block, whether it stands above or below them.

Columns and labels:
CXCR3 [1] = conditions: CXCR3 mutant Y271 6.51 A
CXCR3 [2] = conditions: CXCR3 mutant W268 6.48 A
CXCR4 [3] = conditions: CXCR4 virtual screening hits
CXCR4 [4] = conditions: mutation of H203 5.42 in CXCR4, range over the ligands named
CCR5 [5] = conditions: mutation of I198 5.42 in CCR5, range over all ligands named
CCR5 [6] = test system: CCR5
CXCR4 [7] = conditions: CXCR4 mutant I259 6.55 A
CX3CR1 = conditions: mutations of Lys14, Lys18, Phe49 of the chemokine

- fold decrease of binding (CXCR3 [1]): more than 10 fold
Molecule: CXCL11: chemokine, CXCR3 ligand
- fold decrease of potency (CXCR3 [2]): more than 10 fold

Molecule: Cc1ccc(-c2nc3n(c2/C=N/N=C(N)N)CCS3)cc1 [compound 76]
- affinity (CXCR4 [3]): 225 µM

Molecule: c1ccc(CNCc2ccc(CN3CCCNCCNCCCNCC3)cc2)nc1 [compound 2]
- fold effect on affinity/potency (CXCR4 [4]): 3–5 fold

Molecule: CC#CCN1C(=O)[C@H]([C@@H](O)C2CCCCC2)NC(=O)C12CCN(Cc1c(C)nn(-c3ccccc3)c1C)CC2 [compound 23]
- fold decrease in affinity and/or potency (CCR5 [5]): 3–125 fold

Molecule: Maraviroc [compound 16]
- fold decrease in affinity and/or potency (CCR5 [5]): 3–125 fold

- fold effect on binding (CCR5 [6]; CCR5 mutant W248 6.48 A): 10 fold
- fold effect on binding (CCR5 [6]; CCR5 mutant Y251 6.51 A/I): 7 fold
Molecule: CCL3: CC chemokine

Molecule: Cc1nc(CN(C)CC2CCCN(CCc3ccccc3C)C2)c[nH]1 (stereo not shown) [compound 78]
- affinity (CXCR4 [3]): 0.31 µM

Molecule: Cc1ccc(-c2ccc3c(c2)C=C(C(=O)Nc2ccc(C[N+](C)(C)C4CCOCC4)cc2)CCC3)cc1.[Cl-] [compound 19]
- fold decrease in affinity and/or potency (CCR5 [5]): 3–125 fold

Molecule: CXCL12: endogenous chemokine ligand of CXCR4
- fold effect on potency (CXCR4 [7]): 8 fold

Molecule: COC[C@@H](c1ccc(C(F)(F)F)cc1)N1CCN(C2(C)CCN(C(=O)c3c(C)ncnc3C)CC2)C[C@@H]1C [compound 17, Vicriviroc]
- fold decrease in affinity and/or potency (CCR5 [5]): 3–125 fold

- fold reduction of affinity for the receptor (CX3CR1): more than 10 fold
B1: CX3CL1: human CX3C chemokine (protein, UniProt P78423 25-397, looked up)
Fractalkine: QHHGVTKCNITCSKMTSKIPVALLIHYQQNQASCGKRAIILETRQHRLFCADPKEQWVKDAMQHLDRQAAALTRNGGTFEKQIGEVKPRTTPAAGGMDESVVLEPEATGESSSLEPTPSSQEAQRALGTSPELPTGVTGSSGTRLPPTPKAQDGGPVGTELFRVPPVSTAATWQSSAPHQPGPSLWAEAKTSEAPSTQDPSTQASTASSPAPEENAPSEGQRVWGQGQSPRPENSLEREEMGPVPAHTDAFQDWGPGSMAHVSVVPVSSEGTPSREPVASGSWTPKAEEPIHATMDPQRLGVLITPVPDAQAATRRQAVGLLAFLGLLFCLGVAMFTYQSLQGCPRKMAGEMAEGLRYIPRSCGSNSYVLVPV
